Tests used:
[1] = target: T1, galectin-9N (Homo sapiens, UniProt O00182); test: Fluorescence anisotropy assay, galectin-9N; format: binding; settings: about 1 μM galectin, 0.1 or 0.02 μM probe; NI = no inhibition at highest concentration tested; read-out: Calculated Kd, Gal-9N
T1 construct: the N-terminal CRD of galectin-9 (galectin-9N)
Procedure: (§1) FA was used to analyze interactions of probes and ligands with galectins in solution, as described before ([41][–][44]). A PheraStarFS plate reader, with software PHERAstar Mars version 2.10 R3 (BMG, Offenburg, Germany), was used, and FA of fluorescein-tagged saccharide probes was measured with excitation at 485 nm and emission at 520 nm.
(§2) The anisotropy (A) is given in units of mA, where the theoretical maximum is 400, and the value for free fluorescein typically 23. All conditions were measured in at least two duplicate wells.
(§3) In this study, the effect of inhibitors of the saccharide probe/galectin interaction was tested in two ways. In the first, a fixed low concentration of fluorescein-tagged probe (0.1 μM) and galectin were mixed with a range of concentrations of inhibitor. An optimal probe was chosen for each galectin to permit use of as low as possible concentration of galectin, while still achieving a sufficient rise in anisotropy for a reliable measuring range ([42][–][44]). […] With structurally defined inhibitors (pure synthetic galacto-oligosaccharides, small galactomannans, and reference ligands) the molecular mass, molar concentrations, and number of binding sites (in this case one binding site per ligand) were known and their dissociation constants (Kd) could therefore be directly calculated, using the data from the FA assay as described in Sörme et al. ([41]). […] Even if the molar concentration of the inhibitor is not known, the anisotropy value at a given condition permits calculation of the molar concentration of free galectin, as described below, and from this what fraction of the galectin is bound by a given mass per volume concentration of inhibitor. From this, the ratio of the molar concentration of the free inhibitor binding sites to their Kd value can be calculated, even if the FA assay cannot distinguish between the case when this is due to a few high affinity binding sites in the polysaccharide fraction or many of low affinity.

[2] = target: galectin-1 (Homo sapiens, UniProt P09382); test: Fluorescence anisotropy assay, inhibition of probe binding to galectin-1; settings: for Kd: about 1 μM galectin, 0.1 or 0.02 μM probe, 4 mM β-mercaptoethanol, NI = no inhibition at highest concentration tested, read-out: Calculated Kd, Gal-1
Procedure: as §1, §2, §3

[3] = target: galectin-3 (Homo sapiens, UniProt P17931); test: Fluorescence anisotropy assay, galectin-3; format: binding; settings: about 1 μM galectin, 0.1 or 0.02 μM probe; NI = no inhibition at highest concentration tested; read-out: Calculated Kd, Gal-3
Procedure: as §1, §2, §3

[4] = target: T2, Gal-9C (Homo sapiens, UniProt O00182); test: Fluorescence anisotropy assay, galectin-9C; format: binding; settings: about 1 μM galectin, 0.1 or 0.02 μM probe; read-out: Calculated Kd, Gal-9C
T2 construct: Gal-9C
Procedure: as §1, §2, §3

Chain of galectin-3 (P17931 whole entry): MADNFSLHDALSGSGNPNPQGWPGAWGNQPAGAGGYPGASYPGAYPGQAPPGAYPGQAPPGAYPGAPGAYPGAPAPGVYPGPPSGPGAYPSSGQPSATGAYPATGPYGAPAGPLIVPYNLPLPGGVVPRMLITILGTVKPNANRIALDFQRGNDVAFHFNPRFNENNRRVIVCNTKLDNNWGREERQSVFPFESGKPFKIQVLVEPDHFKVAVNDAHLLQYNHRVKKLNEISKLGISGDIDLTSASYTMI
Chain of galectin-1 (P09382 whole entry, species assumed): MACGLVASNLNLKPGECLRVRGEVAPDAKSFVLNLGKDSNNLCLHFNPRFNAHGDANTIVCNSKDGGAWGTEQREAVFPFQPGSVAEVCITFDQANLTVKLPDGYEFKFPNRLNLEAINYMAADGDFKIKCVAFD
T1 sequence (O00182 17-148 limits assumed): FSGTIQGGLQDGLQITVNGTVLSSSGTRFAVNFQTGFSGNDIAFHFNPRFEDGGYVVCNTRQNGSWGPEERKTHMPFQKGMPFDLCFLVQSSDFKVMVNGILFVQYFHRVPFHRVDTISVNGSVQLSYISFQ
T2 sequence (O00182 227-355 limits assumed): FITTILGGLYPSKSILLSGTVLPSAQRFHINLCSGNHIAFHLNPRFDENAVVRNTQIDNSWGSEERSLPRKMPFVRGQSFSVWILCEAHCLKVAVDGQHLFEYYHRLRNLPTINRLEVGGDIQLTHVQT

With `OC1OC[C@H](O)[C@H](O)[C@H]1O` (mixture of isomers) [L-Arabinose, L-arabinose, reference compound] the Kd [1] was 94000 µM.
For `OC[C@H]1O[C@@H](OC[C@H]2OC(O)[C@H](O)[C@@H](O[C@@H]3O[C@H](CO)[C@H](O)[C@H](O)[C@H]3O)[C@H]2O)[C@H](O)[C@@H](O)[C@H]1O` (stereo partly shown) [Branched Galβ1–6(Galβ1–3)Gal, Galβ1–6(Galβ1–3)Gal], the Kd [2] was 1300 µM, the Kd [3] was 130 µM and the Kd [1] was 100 µM.
With `OC[C@H]1O[C@@H](OC[C@H]2O[C@@H](OC[C@H]3OC(O)[C@H](O)[C@@H](O)[C@H]3O)[C@H](O)[C@@H](O[C@@H]3O[C@H](CO)[C@H](O)[C@H](O)[C@H]3O)[C@H]2O)[C@H](O)[C@@H](O)[C@H]1O` (stereo partly shown) [Branched Galβ1–6(Galβ1–3)Galβ1–6Gal, Galβ1–6(Galβ1–3)Galβ1–6Gal] the Kd [2] was 800 µM, the Kd [3] was 80 µM and the Kd [1] was 51 µM.
In the case of `OC[C@H]1O[C@@H](O[C@H]2[C@@H](O)[C@@H](CO)OC(O)[C@@H]2O)[C@H](O)[C@@H](O)[C@H]1O` (stereo partly shown) [Galβ1–3Gal], the Kd [3] is reported as 180 µM and the Kd [1] is reported as 150 µM.
For `OC[C@H]1O[C@@H](O[C@H]2[C@@H](O)[C@@H](CO)O[C@@H](OC[C@H]3OC(O)[C@H](O)[C@@H](O)[C@H]3O)[C@@H]2O)[C@H](O)[C@@H](O)[C@H]1O` (stereo partly shown) [Galβ1–3Galβ1–6Gal], the Kd [2] was 1200 µM, the Kd [3] was 110 µM and the Kd [1] was 68 µM.
`OC[C@H]1O[C@@H](O[C@@H]2[C@H](O)[C@@H](O)C(O)O[C@@H]2CO)[C@H](O)[C@@H](O)[C@H]1O` (stereo partly shown) [Galβ1–4Gal] showed a Kd [1] of 1200 µM.
In the case of `OC[C@H]1O[C@@H](OC[C@H]2OC(O)[C@H](O)[C@@H](O)[C@H]2O)[C@H](O)[C@@H](O)[C@H]1O` (stereo partly shown) [Galβ1–6Gal], the Kd [2] is reported as > 2000 µM and the Kd [1] is reported as > 2000 µM.
For `OC[C@H]1O[C@@H](OC[C@H]2O[C@@H](OC[C@H]3OC(O)[C@H](O)[C@@H](O)[C@H]3O)[C@H](O)[C@@H](O)[C@H]2O)[C@H](O)[C@@H](O)[C@H]1O` (stereo partly shown) [Galβ1–6Galβ1–6Gal], the Kd [2] was > 2000 µM, the Kd [3] was > 2000 µM and the Kd [1] was > 2000 µM.
Work on `COC1OC(CO)C(O)C(O)C1O` (stereo not drawn) [Methyl β-Gal, reference compound] yielded a Kd [4] of 8600 µM and a Kd [1] of 4000 µM.
With Anginex [reference compound] the “influence on galectin-1 interaction with Davanat®” value ([2]; galectin-1 0.5 μM, tdga probe 0.1 μM, Fig. 7E) was “no influence” and the “potentiation of the inhibition of galectin-1 by ASF (factor)” value ([2]; with or without β-mercaptoethanol, Fig. 7F) was “about 500”.
